# Article PMC8145938, “Triphenilphosphonium Analogs of Chloramphenicol as Dual-Acting Antimicrobial and Antiproliferating Agents” (Antibiotics, 2021)
# Tests used:
# [1] = test system: Mycobacterium smegmatis; experiment: MIC determination, broth microdilution; assay type: cell-based; conditions: Mycolicibacterium smegmatis
# Excerpt: (§1) Standard laboratory strains of Bacillus subtilis subs. subtilis Cohn 1872, stains BR151, and 168, Staphylococcus aureus subsp. aureus Rosenbach 1884 strains JCM 2151 and entry MC#144 (from the Microorganisms Collection of the Moscow State University), Listeria monocytogenes Pirie 1940, Mycobacterium smegmatis Lehmann and Neumann 1899 (MC#377), and Escherichia coli Castellani and Chalmers 1919, strain JW5503 (with the deletion of tolC gene), which are resistant to the chloramphenicol strains, J53rif, C600rif/pIB55-1, C600rif/pIP162-1, and C600recA naI, were used.
# (§2) The MICs for CAM-Cn-TPP and Cn-TPP were determined by Mueller-Hinton broth microdilution, as recommended by CLSI in the Methods for Dilution Antimicrobial Susceptibility Tests for Bacteria that Grow Aerobically, Approved Standard, 9th ed., CLSI document M07-A9, using in-house-prepared panels. The compounds were diluted in a 96-well microtiter plate to final concentrations ranging from 0.5 to 360 μM in a 250-µL aliquot of the bacterial suspension, followed by incubation at 37 °C or 30 °C for 18 h. […] The bacterial growth was observed visually alongside OD measurements. The experiments were carried out in triplicate.
# [2] = test system: Bacillus subtilis; experiment: MIC determination, broth microdilution; assay type: cell-based
# Excerpt: as §1, §2
# [3] = test system: Listeria monocytogenes; experiment: MIC determination, broth microdilution; assay type: cell-based
# Excerpt: as §1
# (§3) S. aureus was grown in Bacto Tryptic Soy Broth, L. monocytogenes in Brain Heart Infusion Broth, and E. coli in LB. Bacterial cells were grown at 30 °C or 37 °C in the appropriate medium at a 140 rpm shaking frequency.
# as §2
# [4] = test system: Staphylococcus aureus; experiment: MIC determination, broth microdilution; assay type: cell-based
# Excerpt: as §1, §3, §2
# [5] = test system: VA13; experiment: MTT assay growth inhibition; assay type: cell-based; conditions: VA-13, 72 h, read-out: 50% growth inhibition concentration (GI50)
# Protocol: (§4) The cytotoxicity of the tested substances was tested using the MTT (3-(4,5-dimethylthiazol-2-yl)-2,5-diphenyltetrazolium bromide) assay, with some modifications, and 2500 cells per well for the MCF7, HEK293T, and A549 cell lines or 4000 cells per well for the VA-13 cell line were plated in 135 µL of DMEM-F12 media (Gibco, Waltham, MA, USA) in a 96-well plate and incubated in the 5% CO2 incubator for first 16 h, without treatment. Then, 15 µL of media-DMSO solutions of the tested substances was added to the cells (the final DMSO concentrations in the media were 1% or less) and treated cells for 72 h with 25 nM–50 µM (eight dilutions) of our substances (triplicate each), and serial DMSO dilutions and doxorubicin were used as controls. The MTT reagent (Paneco LLC, Moscow, Russia) was then added to cells to a final concentration of 0.5 g/L (10× stock solution in PBS was used) and incubated for 2.5 h at 37 °C in the incubator under an atmosphere of 5% CO2. The MTT solution was then discarded, and 140 µL of DMSO (PharmaMed LLC, Krasnodarsky Krai, Russia) was added. The plates were swayed on a shaker (60 rpm) to dissolve the formazan. The absorbance was measured using a microplate reader (VICTOR X5 Light Plate Reader, PerkinElmer, Waltham, MA, USA) at a wavelength of 565 nm (in order to measure formazan concentration). The results were used to construct a dose-response graph and to estimate the CC50 value.
# [6] = test system: HEK293T; experiment: MTT assay growth inhibition; assay type: cell-based; conditions: Homo sapiens, HEK-293T, 72 h, read-out: 50% growth inhibition concentration (GI50)
# Protocol: as §4
# [7] = test system: MCF7; experiment: MTT assay growth inhibition; assay type: cell-based; conditions: Homo sapiens, 72 h, read-out: 50% growth inhibition concentration (GI50)
# Protocol: as §4
# [8] = test system: E. coli BW25113 ΔtolC pDualrep2 reporter strain; experiment: pDualrep2 double fluorescent reporter assay on agar plate; assay type: cell-based; conditions: for inhibition of cell growth (inhibition zone) of the reporter strain: 10 mM, 1.5 μL spotted on agar lawn; for induction of reporters (Katushka2S: ribosome stalling; RFP: DNA damage): compound spotted on agar lawn, overnight 37 °C
# Excerpt: Next, we tested the effects of CAM-C10-TPP and CAM-C14-TPP in bacterial cells using an E. coli ∆tolC-based reporter system, which is designed to screen inhibitors targeting either protein synthesis or DNA replication. In this reporter system, the gene of the far-red fluorescent protein, katushka2S, is inserted downstream of the genetically modified tryptophan attenuator, making it possible to express Katushka2S only upon exposure to ribosome-stalling compounds (Figure 2B, CHL and ERY, red pseudocolor rings).
# Reporter strain […] [71] ΔtolC (BW25113) pDualrep2 was used, as previously described. The tested antibiotics, CAM-C10-TPP (10 mM, 1.5 μL), CAM-C14-TPP (10 mM, 1.5 μL), C10-TPP (10 mM, 1.5 μL), C14-TPP (10 mM, 1.5 μL), CAM (10 mM, 1.5 μL), CAM-Ac (10 mM, 1.5 μL), chloramphenicol (CHL, 2 mM, 1 μL), erythromycin (Ery, 7 mM, 1 μL), and levofloxacin (Lev, 70 nM, 1 μL), were applied to an agar plate that already contained a lawn of the reporter strain. After being incubated overnight at 37 °C, the plate was scanned by ChemiDoc (Bio-Rad) in the modes, “Cy3-blot” for RFP and “Cy5-blot” for Katushka2S.
# [9] = test system: B. subtilis pHT01-cat; experiment: MIC determination, broth microdilution; assay type: cell-based; conditions: Bacillus subtilis, PHT01CAT
# Protocol: (§5) E. coli ∆tolC CHL-resistant strain harboring plasmid encoding for chloramphenicol acetyltransferase (cat) (pCA24N-LacZ) and the control E. coli ∆tolC strain was used to evaluate the inhibitory effect of the compounds. CHL-resistant strains of B. subtilis pHT01-cat and B. subtilis pHT01-cfr were prepared by means of a transformation of a B. subtilis 168 strain with plasmids harboring the cat and cfr genes (chloramphenicol-florfenicol resistance) gene. The cfr gene encodes for the methyltransferase, which catalyzes the methylation of […] in the 23S rRNA and causes resistance to a variety of ribosome-targeting antibiotics that bind in the A site of the bacterial ribosome.
# (§6) A standard laboratory strain of B. subtilis 168 was used to obtain the CHL-resistant strains, B. subtilis pHT01-CAT and B. subtilis pHT01-cfr, by means of transformation with the corresponding plasmids. Competent cell preparation and transformation procedures were conducted, as reported in [74, 75]. The desired colonies were selected at 10 µg/mL of CHL for B. subtilis pHT01 and 5 µg/mL or 3.2 µg/mL of CHL for B. subtilis pHT01-cfr.
# as §2
# [10] = test system: B. subtilis pHT01-cfr; experiment: MIC determination, broth microdilution; assay type: cell-based; conditions: Bacillus subtilis, PHT01CFR
# Protocol: as §5, §6, §2
# [11] = test system: Escherichia coli J53rif; experiment: MIC determination, CHL resistant E. coli strains; assay type: cell-based
# Excerpt: as §1, §2
# [12] = test system: Escherichia coli C600rif/pIB55-1; experiment: MIC determination, CHL resistant E. coli strains; assay type: cell-based
# Excerpt: as §1, §2
# [13] = test system: Escherichia coli C600rif/pIP162-1; experiment: MIC determination, CHL resistant E. coli strains; assay type: cell-based
# Excerpt: as §1, §2
# [14] = test system: Escherichia coli C600recA naI; experiment: MIC determination, CHL resistant E. coli strains; assay type: cell-based; conditions: C600RECANAI
# Excerpt: as §1, §2
# [15] = test system: A549; experiment: MTT assay growth inhibition; assay type: cell-based, human; conditions: Homo sapiens, A549; MTT, 72 h; read-out: 50% growth inhibition concentration (GI50)
# Protocol: as §4
# [16] = test system: E. coli ∆tolC-CAT; experiment: MIC determination, broth microdilution; assay type: cell-based; conditions: Escherichia coli
# Protocol: as §5
# (§7) A standard laboratory strain of E. coli JW5503, with the deletion of the tolC gene, referred to here as the ∆tolC strain, was used to obtain the ∆tolC pCA24N-LacZ strain by means of transformation with the plasmid pCA24N-LacZ-harboring chloramphenicol acetyltransferase (cat) gene.
# as §2
# [17] = test system: E. coli ∆tolC; experiment: MIC determination, broth microdilution; assay type: cell-based; conditions: Escherichia coli
# Protocol: as §5, §7, §2
SMILES,MIC [1] [µM],MIC [2] [µM],MIC [3] [µM],MIC [4] [µM],GI50 [5] [nM],GI50 [6] [nM],GI50 [7] [nM],inhibition of cell growth (inhibition zone) of the reporter strain [8],induction of reporters (Katushka2S: ribosome stalling; RFP: DNA damage) [8],MIC [9] [µM],MIC [10] [µM],MIC [11] [µM],MIC [12] [µM],MIC [13] [µM],MIC [14] [µM],GI50 [15] [nM],MIC [16] [µM],MIC [17] [µM]
"CCCCCCCCCC[P+](c1ccccc1)(c1ccccc1)c1ccccc1 [C10-TPP, decyl(triphenyl)phosphonium bromide]",< 2,2,5,2,270 ± 50,80 ± 10,210 ± 30,inhibit bacterial cell growth,do not induce either of the two reporters,1.6,0.8,110,67,93,136,70 ± 10,3,3
"CCCCCCCCCCCCCC[P+](c1ccccc1)(c1ccccc1)c1ccccc1 [C14-TPP, tetradecyl(triphenyl)phosphonium bromide]",4,8,2,1.6,70 ± 50,30 ± 20,20 ± 10,inhibit bacterial cell growth,do not induce either of the two reporters,1.6,0.8,,,,,25 ± 9,6,1.6
"CC(=O)N[C@H](CO)[C@H](O)c1ccc([N+](=O)[O-])cc1 [CAM-Ac, N-acetyl-chloramphenicol amine]",,,,,,,,,neither the induction of either of the two reporters,,,,,,,,,
"COc1cccc2c1C(=O)c1c(O)c3c(c(O)c1C2=O)C[C@@](O)(C(=O)CO)C[C@@H]3O[C@H]1C[C@H](N)[C@H](O)[C@H](C)O1 [Doxorubicin, doxorubicin]",,,,,180 ± 40,7 ± 1,40 ± 10,,,,,,,,,40 ± 10,,
"CC[C@H]1OC(=O)[C@H](C)[C@@H](O[C@H]2C[C@@](C)(OC)[C@@H](O)[C@H](C)O2)[C@H](C)[C@@H](O[C@@H]2O[C@H](C)C[C@H](N(C)C)[C@H]2O)[C@](C)(O)C[C@@H](C)C(=O)[C@H](C)[C@@H](O)[C@]1(C)O [ERY, erythromycin]",,,,,,,,,"red pseudocolor rings are observed due to the expression of the fluorescent protein, Katushka2S (but not RFP)",,,,,,,,,
"C[C@H]1COc2c(N3CCN(C)CC3)c(F)cc3c(=O)c(C(=O)O)cn1c23 [LEV, levofloxacin]",,,,,,,,,green pseudocolored rings,,,,,,,,,
